Data taken from PMC9668969 (Nature Communications, 2022).

Test system: WT ELIC
Assay: Fluorescence stopped-flow liposomal Tl+ flux assay, symmetric liposomes
Type: biochemical, Erwinia chrysanthemi
Method: The fluorescence sequential-mixing stopped-flow liposomal flux measurements were carried using an SX20 stopped-flow spectrofluorometer (Applied Photophysics) and Pro-Data SX software[13],[30]. 7.5 mg of the respective lipid mixture (POPC, 1:1 POPC: POPE, 1:1 POPC:POPG, 3:1 POPC:POPE, 3:1 POPC:POPG, 2:1:1 POPC:POPE:POPG) was dried in a glass vial to a thin film under a constant stream of N2. The lipids were then further dried under vacuum in a desiccator overnight. The following day the lipids were hydrated in 500 µl of reconstitution buffer (100 mM NaNO3, 10 mM HEPES, pH 7) (Buffer R), 250 µl of 75 mM 8-Aminonaphthalene-1,3,6-Trisulfonic Acid (ANTS, ThermoFisher Scientific) in buffer R, and doped with ~18 mg of CHAPS (Anatrace). The mixture was vortexed and then sonicated with heat until completely solubilized. Following the sonication, the solution was brought to RT then 3.5 µl of 6.7 mg/ml ELIC in Buffer A with 0.02% DDM was added (3 µg per mg of lipid). This combined solution was incubated at RT for 30 min, followed by the addition of 1 ml of 1:1 v/v SM-2 BioBeads in Buffer R and an additional 250 µl of 75 mM ANTS in Buffer R. This mixture was incubated at RT for 2.5 hr with gentle mixing. The liposome suspension was then extruded with an Avanti mini-extruder and 0.1 µm membrane (30×). The extruded liposomes were stored at 13 °C overnight with gentle rotation. The next day, the liposomes were diluted to 2.5 mL using assay buffer (140 mM NaNO3, 10 mM HEPES, pH 7) (Stopped-flow Buffer A), loaded into a PD-10 desalting column (Cytiva), eluted with 3 mL of Stopped-flow Buffer A and subsequently diluted 5-fold with Stopped-flow Buffer A.
Using propylamine as the agonist, the assay and analysis was carried out as previously described[13],[30]. ELIC-containing liposomes were first mixed 1:1 with Buffer A containing 2× the concentration of propylamine. After a variable delay of 10 ms to 25 s, the sample was then mixed 1:1 with a quenching buffer (90 mM NaNO3, 50 mM TlNO3, 10 mM HEPES, pH 7), and ANTS fluorescence (ex. 360 nm, fluorescence above 420 nm) was recorded for 1 s. For each delay time, 5 repeat measurements were obtained. The data were collected using Applied Photophysics Pro-Data SX software. The fluorescence quenching traces were fit to a stretched exponential (Eq. 2a) and the rate of Tl^+ influx was determined at 2 ms (Eq. 2b).2a Ft=F∞+F0−F∞⋅e^−t/τ^β 2b kt=β/τ⋅2ms/τ^(β−1) where Ft, F∞, F0 are the fluorescence at time t, final fluorescence and initial fluorescence. τ is the time constant, β the stretched exponential factor, and kt the calculated rate of Tl^+ influx at 2 ms. The time course of desensitization was also fit to a double exponential and a weighted time constant was calculated as was done for the patch-clamp data using Origin 2019b. All replicates were taken from independent samples.

With `CCCCCCCC/C=C\CCCCCCCC(=O)OC(COC(=O)CCCCCCCCCCCCCCC)COP(=O)(O)OCC(O)CO` (stereo not drawn) [POPG, 1-palmitoyl-2-oleoyl-phosphatidylglycerol] the “time constant of desensitization” value (25% POPG in symmetric liposomes) was ~ 6 s, the effect on desensitization (25–50 mol% in binary mixtures with POPC, 10 mM propylamine) was “slowed desensitization” and the “time constant of desensitization” value (50% POPG in symmetric liposomes) was ~ 12 s.
